Reference: EP4796125A1, “TREATMENT OF PATIENT WITH NEGATIVE P53 GENE MUTATION, POSITIVE KRAS GENE MUTATION AND POSITIVE BRCA MUTATION” (Ascentawits Pharmaceuticals, Ltd., priority 2023, dated 2025)

Tests used:
[1] = test system: PDX and CDX models with high expression of AKR1C3 enzyme; settings: WO2023/046060, Examples 1-9; cited from earlier work
hepatocellular carcinoma = experiment: Phase II clinical trial of AST-3424 conducted in China (CTR20191399); assay type: in vivo, human
From the text: The clinical trial registration number is CTR20191399.
• 1. Male or female, aged ≥18 years. • 2. Pathohistologically confirmed advanced HCC that cannot be controlled by surgical resection or local therapy. • 3. Previously received standard systemic therapy, including but not limited to, Sorafenib and/or Oxaliplatin-containing systemic chemotherapy, Lenvatinib, Regorafenib, and/or Nivolumab, experienced disease progression, toxicity intolerance, or refusal to continue treatment with these drugs. • 4. At least one measurable lesion according to RECIST 1.1 criteria. Previously irradiated lesions cannot be considered as measurable lesions unless clear radiographic progression is observed after radiotherapy. • 5. […] Eastern Cooperative Oncology Group (ECOG) performance status score of 0 or 1. • 7. Life expectancy ≥ 12 weeks. • 8. With or without HBV or HCV infection. • a. Subjects with HBV infection must have HBV-DNA level less than 2,000 IU/ml, and receive antiviral therapy with entecavir, tenofovir disoproxil fumarate, or tenofovir alafenamide fumarate according to the national guidelines for the prevention and treatment of chronic hepatitis B. The therapy must be maintained during the study and continue for 6 months after the last dose. • b. Subjects with HCV infection (with detectable HCV-RNA or anti-HCV antibodies) may receive treatment according to medical practice. • 9. Child-Pugh score ≤ 6 points. • 10. No history of hepatic encephalopathy. • 11. Before starting to use the study drug, all toxicities from previous anticancer therapies (except alopecia, fatigue, or peripheral neuropathy) must have recovered to Grade 1 or baseline levels (NCI CTCAE Version 5). • 12. Laboratory tests must meet the following criteria. During 14 days before laboratory tests at screening, indicators cannot be corrected by blood transfusion, hematopoietic stimulating factor or albumin infusion is allowed to meet the inclusion criteria. • a. Hemoglobin ≥ 90 g/L; • b. Platelet count ≥ 80 × 10^9/L; • c. Absolute neutrophil count (ANC) ≥ 1.5 × 10^9/L; • d. Serum total bilirubin ≤ 3 mg/dL; • e. ALT and AST ≤ 5.0 × ULN; • f. International normalized ratio (INR) ≤ 2.3 or prothrombin time prolongation ≤ 6 seconds; • g. Albumin ≥ 29 g/L; • h. Creatinine clearance > 50 mL/min as measured according to the Cockcroft-Gault equation. • 13. No history of alcohol abuse, drug addiction or substance abuse within the past year. • 14. Fertile female patients must be in non-lactating and have a negative pregnancy test result within 5 days before the initiation of treatment (positive urine pregnancy test result needs to be confirmed by a serum pregnancy test). • 15. Fertile female and male subjects must agree to use effective contraceptive measures (e.g. surgical sterilization or condom or diaphragm contraceptive measures combined with spermicidal gel or intrauterine contraceptive device [IUD], etc.) with their partners from the start of study participation until 6 months after the last dose. • 16. Voluntary participation in this study, fully understanding of relevant risks, good compliance, and signing the informed consent form. Subjects may also sign a consent form for future biomedical research (FBR). However, subjects who would not participate in FBR may still participate in the main trial.
• 1. Untreated active central nervous system (CNS) metastases or leptomeningeal disease. Subjects with adequately treated CNS metastases may participate if they are confirmed to be stable for at least 4 weeks by clinical examination and brain imaging (MRI or CT) during screening. • 2. History of other malignant tumors within 2 years, except for adequately treated basal cell carcinoma, carcinoma in situ at other sites, or other tumors of which the natural medical history and the treatment will not interfere with the safety or efficacy assessment of the current study. • 3. Major surgery (other than diagnostic surgery) performed within 4 weeks prior to the first dose. • 4. […]

NCI-H460 P53KO #1 cells = experiment: In vitro proliferation under normoxia conditions (CTG, 72 hours), Example 29; assay type: cell-based, human; settings: Table 25
Method: • 1) NCI-H460 and NCI-H460 P53KO # 1 cell suspensions were added to 96-well plate (100 µL per well), with a cell density of 2000 cells/well. • 2) The cells were cultured overnight in a 37°C, 5% CO2 incubator. • 3) Compound Treatment
Monotherapy: 24 hours after cell plating, each well was supplemented with 99.5 µL of growth medium. Then, 0.5 µL of test compounds at different concentrations was added. The plate was gently shaken to ensure even mixing, and then placed in a 37°C, 5% CO2 incubator.
Combination therapy: 24 hours after cell plating, each well was supplemented with 99 µL of growth medium. Then, 0.5 µL of the combination compound was added. The plate was gently shaken to ensure even mixing, and then placed in an incubator for 2 hours. Then, 0.5µL of test compounds at different concentrations was added. The plate was gently shaken to ensure even mixing, and then placed in a 37°C, 5% CO2 incubator. • 4) The cell plate was placed in the incubator for 72 hours. • 5) The cell plate to be tested was placed at room temperature and equilibrated for 30 minutes, and 100 µL of medium was discarded from each well. • 6) 25 µL of CTG reagent was added to each well, placed at a fast shaker to shake for 2 minutes, and placed at room temperature for 30 minutes (protected from light). • 7) The chemiluminescence signal value was read using a multifunctional microplate reader with a reading time of 1000 ms. • 8) IC50 (half maximal inhibitory concentration) values were calculated using GraphPad Prism 5 software.

[2] = 6 cases positive (+) for BRCA gene mutation, as of March 11, 2024
[3] = 8 cases negative (-) for BRCA gene mutation, as of March 11, 2024
[4] = 8 cases positive (+) for p53 gene mutation which may affect protein expression (MUT), as of March 11, 2024
[5] = 9 cases negative (-) for p53 gene mutation (WT), as of March 11, 2024
[6] = 18 liver cancer subjects who completed the clinical efficacy evaluation
[7] = 30 enrolled subjects, as of March 11, 2024
[8] = subgroup of 5 cases negative (-) for BRCA gene mutation, Table 4 data
[9] = subgroup of 5 cases negative (-) for p53 gene mutation or deficiency, Table 4 data
[10] = subgroup of 5 cases positive (+) for BRCA gene mutation, Table 4 data
[11] = subgroup of 5 cases positive (+) for p53 gene mutation or deficiency, Table 4 data

C[C@H](OP(=O)(N1CC1)N1CC1)c1ccc([N+](=O)[O-])c(Oc2cccc(C(=O)N(C)C)c2)c1 [AST-3424]
anti-tumor effects [1]: significant anti-tumor effects
tolerability [1]: well tolerated
DCR (hepatocellular carcinoma; [2]): 66.7%
ORR (hepatocellular carcinoma; [2]): 16.7%
longest OS (hepatocellular carcinoma; [2]): more than 13.8 months
longest PFS (hepatocellular carcinoma; [2]): more than 11.5 months
mean OS (hepatocellular carcinoma; [2]): more than 9.5 months
mean PFS (hepatocellular carcinoma; [2]): 4.5 months
DCR (hepatocellular carcinoma; [3]): 50%
ORR (hepatocellular carcinoma; [3]): 0%
longest OS (hepatocellular carcinoma; [3]): more than 17.6 months
longest PFS (hepatocellular carcinoma; [3]): 2.9 months
mean OS (hepatocellular carcinoma; [3]): more than 9.4 months
mean PFS (hepatocellular carcinoma; [3]): 1.9 months
DCR (hepatocellular carcinoma; [4]): 25%
ORR (hepatocellular carcinoma; [4]): 0%
longest OS (hepatocellular carcinoma; [4]): > 14.0 months
longest PFS (hepatocellular carcinoma; [4]): 1.6 months
mean OS (hepatocellular carcinoma; [4]): more than 9.3 months
mean PFS (hepatocellular carcinoma; [4]): 1.4 months
DCR (hepatocellular carcinoma; [5]): 77.8%
ORR (hepatocellular carcinoma; [5]): 22.2%
longest OS (hepatocellular carcinoma; [5]): > 13.8 months
longest PFS (hepatocellular carcinoma; [5]): more than 11.5 months
mean OS (hepatocellular carcinoma; [5]): more than 7.7 months
mean PFS (hepatocellular carcinoma; [5]): more than 4.1 months
DCR (hepatocellular carcinoma; [6]): 61.1%
ORR (hepatocellular carcinoma; [6]): 5.6%
longest OS (hepatocellular carcinoma; [7]): > 17.6 months
longest PFS (hepatocellular carcinoma; [7]): > 11.5 months
DCR (hepatocellular carcinoma; [8]): 60%
ORR (hepatocellular carcinoma; [8]): 0%
mean PFS (hepatocellular carcinoma; [8]): 1.976 months
DCR (hepatocellular carcinoma; [9]): 80%
ORR (hepatocellular carcinoma; [9]): 20%
mean PFS (hepatocellular carcinoma; [9]): 4.1 months
DCR (hepatocellular carcinoma; [10]): 80%
ORR (hepatocellular carcinoma; [10]): 20%
mean PFS (hepatocellular carcinoma; [10]): 3.82 months
DCR (hepatocellular carcinoma; [11]): 60%
ORR (hepatocellular carcinoma; [11]): 0%
mean PFS (hepatocellular carcinoma; [11]): 1.756 months
IC50 (NCI-H460 P53KO #1 cells; Homo sapiens, NCI-H460 P53KO # 1, normoxia, alone or + 3 µM AST-3021): 5.45 nM
Ratio, knockout / wild-type (NCI-H460 P53KO #1 cells; IC50 in NCI-H460 P53KO # 1 / NCI-H460): 12.67
